# Experimental data: patent publication US20040005537A1, “Method of identifying toxic agents using differential gene expression” (priority 2000, published 2004)
# Key:
# rat heart tissue = assay: GENECALLING differential gene expression analysis after dosing of serotonin modulating agents; format: in vivo, Sprague Dawley rats
# Procedure, shortened: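 Rats dosed with serotonin modulating agents, controls given sterile water or canola oil; tissue taken 24 h after the last dose. Total RNA converted to cDNA and profiled by GENECALLING differential expression analysis; fragments changed more than ±1.5-fold were selected.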
# [1] = grouping used to generate the distinguishing gene profiles; cited from earlier work
smiles,measurement,setting,value
CNS(=O)(=O)Cc1ccc2[nH]cc(CCN(C)C)c2c1 [sumatriptan],"Effects on Transcription Level: Novel gene fragment, 445 bp, 85% SI to human skeletal muscle alpha 2 actinin [M86406]",rat heart tissue; CARDIOTOX 72,5.7 fold
same,"Effects on Transcription Level: Novel gene fragment, 246 bp, 89% SI to mouse ponsin-1 [AF078667]",rat heart tissue; CARDIOTOX 73,−3.2 fold
same,"Effects on Transcription Level: Novel gene fragment, 126 bp, 77% SI to human DNA sequence from cosmid V311G7, between markers DXS366 and DXS87 on chromosome X [Z69304]",rat heart tissue; CARDIOTOX 74,+2.1 fold
same,"Effects on Transcription Level: Novel gene fragment, 370 bp",rat heart tissue; CARDIOTOX 75,−2.7 fold
same,"Effects on Transcription Level: Novel gene fragment, 337 bp, 78% SI to novel human protein AHNAK [M80899]",rat heart tissue; CARDIOTOX 76,−4.3 fold
same,"Effects on Transcription Level: Novel gene fragment, 100 bp, 93% SI to human KIAA0750 protein [ABO18293]",rat heart tissue; CARDIOTOX 77,−9.3 fold
same,"Effects on Transcription Level: Novel gene fragment, 44 bp",rat heart tissue; CARDIOTOX 78,−5.4 fold
same,"Effects on Transcription Level: Novel gene fragment, 698 bp, 93% SI to mouse plenty-of-prolines-101 [AF062655]",rat heart tissue; CARDIOTOX 79,−2.3 fold
same,"Effects on Transcription Level: Novel gene fragment, 660 bp, 84% SI to mouse membrane protein TMS-2 [AF181685]",rat heart tissue; CARDIOTOX 80,−3.8 fold
same,"Effects on Transcription Level: Novel gene fragment, 115 bp",rat heart tissue; CARDIOTOX 81,−4.1 fold
same,"Effects on Transcription Level: Novel gene fragment, 294 bp, 95% SI to mouse Ndr1 related protein Ndr2 [AB033921]",rat heart tissue; CARDIOTOX 82,−2.0 fold
same,"Effects on Transcription Level: Novel gene fragment, 198 bp",rat heart tissue; CARDIOTOX 83,+2.5 fold
same,"Effects on Transcription Level: Novel gene fragment, 730 bp, 86% SI to mouse E800 [Y10968]",rat heart tissue; CARDIOTOX 84,−2.8 fold
same,"Effects on Transcription Level: Novel gene fragment, 294 bp, 98% SI to cysteine conjugate beta-lyase [S61960]",rat heart tissue; CARDIOTOX 85,−2.8 fold
same,Effects on Transcription Level: Aconitase,"rat heart tissue; CARDIOTOX 86, GenBank A1243266",−1.9 fold
same,Effects on Transcription Level: Ribosomal protein L7,"rat heart tissue; CARDIOTOX 87, GenBank M17422",+2.5 fold
same,Effects on Transcription Level: Ribosomal protein L9,"rat heart tissue; CARDIOTOX 88, GenBank X51706",+10.1 fold
same,Effects on Transcription Level: Ribosomal protein L12,"rat heart tissue; CARDIOTOX 89, GenBank X53504",−1.5 fold
same,"Effects on Transcription Level: 18S, 5.8S, and 28S ribosomal RNA's","rat heart tissue; CARDIOTOX 90, GenBank V01270",+5 fold
same,Effects on Transcription Level: Pyruvate dehydrogenase kinase 2 (PDK2),"rat heart tissue; CARDIOTOX 91, GenBank U10357",−6.10 fold
same,Effects on Transcription Level: D-Binding Protein (DBP),"rat heart tissue; CARDIOTOX 92, GenBank J03179",−1.4 fold
same,Effects on Transcription Level: Lipoprotein lipase,"rat heart tissue; CARDIOTOX 93, GenBank L03294",−2.2 fold
same,Effects on Transcription Level: Non-neuronal enolase,"rat heart tissue; CARDIOTOX 94, GenBank X02610",+3.5 fold
same,Effects on Transcription Level: Glycogen phosphorylase (muscle isozyme),"rat heart tissue; CARDIOTOX 95, GenBank L10669",−2.6 fold
same,Effects on Transcription Level: Cytochrome c oxidase subunit IV,"rat heart tissue; CARDIOTOX 96, GenBank X14209",+10.0 fold
same,Effects on Transcription Level: Alpha-globin,"rat heart tissue; CARDIOTOX 97, GenBank M17083",+3.8 fold
same,Effects on Transcription Level: Beta-globin,"rat heart tissue; CARDIOTOX 98, GenBank X06701",+3.11 fold
same,Effects on Transcription Level: Myoglobin,"rat heart tissue; CARDIOTOX 99, GenBank AF197916",+4.7 fold
same,Effects on Transcription Level: Titin,"rat heart tissue; CARDIOTOX 100, GenBank L38717",−2.1 fold
same,Effects on Transcription Level: Skeletal muscle actin,"rat heart tissue; CARDIOTOX 101, GenBank V01218",−18.3 fold
same,Effects on Transcription Level: Myosin light chain 2 (MLC2),"rat heart tissue; CARDIOTOX 102, GenBank M11851",+2.2 fold
same,Effects on Transcription Level: Alpha cardiac myosin heavy chain,"rat heart tissue; CARDIOTOX 103, GenBank X15938",−3.5 fold
same,Effects on Transcription Level: Troponin I,"rat heart tissue; CARDIOTOX 104, GenBank U77354",+1.8 fold
same,Effects on Transcription Level: Cardiac calsequestrin,"rat heart tissue; CARDIOTOX 105, GenBank AF001334",−2.9 fold
same,Effects on Transcription Level: Sulfated glycoprotein 2,"rat heart tissue; CARDIOTOX 106, GenBank M16975",−1.6 fold
same,Effects on Transcription Level: Aquaporin 7,"rat heart tissue; CARDIOTOX 107, GenBank AB000507",+1.5 fold
same,Effects on Transcription Level: Carnitine/acylcarnitine carrier protein,"rat heart tissue; CARDIOTOX 108, GenBank X97831",−2.5 fold
same,Effects on Transcription Level: Glu-Pro Dipeptide Repeat,"rat heart tissue; CARDIOTOX 109, GenBank U40628",−6.2 fold
same,Effects on Transcription Level: Cystatin beta,"rat heart tissue; CARDIOTOX 110, GenBank X54737",+2.5 fold
same,"Effects on Transcription Level: Novel gene fragment, 593 bp, 90% SI to human calcineurin B-like protein [Z08983]",rat heart tissue; CARDIOTOX 111,+1.10 fold
same,"Effects on Transcription Level: Novel gene fragment, 179 bp, 88% SI to human titin [X90568]",rat heart tissue; CARDIOTOX 112,−3.1 fold
same,"Effects on Transcription Level: Novel gene fragment, 700 bp, 91% SI to mouse periplakin (PPL) [AF116523]",rat heart tissue; CARDIOTOX 113,+2.5 fold
same,Effects on Transcription Level: Long chain acyl-CoA dehydrogenase (LCAD),"rat heart tissue; CARDIOTOX 114, GenBank J05029",+1.7 fold
same,Effects on Transcription Level: Sulfated glycoprotein 1 (SGP-1),"rat heart tissue; CARDIOTOX 115, GenBank M19936",−1.8 fold
same,Effects on Transcription Level: Catalase,"rat heart tissue; CARDIOTOX 116, GenBank M11670",+2.1 fold
same,Effects on Transcription Level: Alpha-fodrin (A2A) (Nonerythroid spectrin alpha subunit),"rat heart tissue; CARDIOTOX 117, GenBank AF084186",−1.7 fold
same,Effects on Transcription Level: Cardiac specific sodium channel alpha-subunit,"rat heart tissue; CARDIOTOX 118, GenBank M27902",−2.0 fold
same,Effects on Transcription Level: Glu-Pro Dipeptide Repeat,"rat heart tissue; CARDIOTOX 119, GenBank U40628",+4.2 fold
same,"Effects on Transcription Level: Novel gene fragment, 200 bp, 64% SI to human KIAA0733 protein [AB018316]",rat heart tissue; CARDIOTOX 120,−1.6 fold
same,Effects on Transcription Level: RNA polymerase II transcription factor SIII (p18 subunit),"rat heart tissue; CARDIOTOX 121, GenBank L42855",+2.1 fold
same,Effects on Transcription Level: Protein-tyrosine phosphalase (LRP),"rat heart tissue; CARDIOTOX 122, GenBank L01702",+1.8 fold
same,Effects on Transcription Level: Skeletal muscle selenoprotein W (SelW),"rat heart tissue; CARDIOTOX 123, GenBank U25264",−1.6 fold
same,Effects on Transcription Level: Sarcoplasmic reticulum 2+-Ca-ATPase,"rat heart tissue; CARDIOTOX 124, GenBank X15635",−2.1 fold
same,Effects on Transcription Level: Ribosomal protein S7,"rat heart tissue; CARDIOTOX 125, GenBank X53377",+1.7 fold
same,Effects on Transcription Level: Ribophorin I,"rat heart tissue; CARDIOTOX 126, GenBank X05300",+2.0 fold
same,Effects on Transcription Level: Beta cardiac myosin heavy chain,"rat heart tissue; CARDIOTOX 127, GenBank X15939",+2.2 fold
same,Effects on Transcription Level: ADP-ribosylation factor 1,"rat heart tissue; CARDIOTOX 128, GenBank L12380",+1.3 fold
same,Effects on Transcription Level: Laminin receptor,"rat heart tissue; CARDIOTOX 129, GenBank U04942",+2.6 fold
same,"Effects on Transcription Level: Novel gene fragment, 206 bp, 89% SI to human seryl-tRNA synthetase [X91257]",rat heart tissue; CARDIOTOX 130,+1.8 fold
same,Effects on Transcription Level: Annexin VI,"rat heart tissue; CARDIOTOX 131, GenBank X86086",−09.0 fold
same,"Effects on Transcription Level: Novel gene fragment, 325 bp, 90% SI to mouse N-RAP [U76618]",rat heart tissue; CARDIOTOX 132,+1.7 fold
same,"Effects on Transcription Level: Novel gene fragment, 61 bp (CARDIOTOX 134)",rat heart tissue; LD10 dose for three days,−3 fold
same,"Effects on Transcription Level: Novel gene fragment, 337 bp (CARDIOTOX 133)",rat heart tissue; LD10 dose for three days,−2.1 fold
same,"Effects on Transcription Level: Novel gene fragment, 378 bp, 88% SI to human coatomer protein (COPA) [U24105] (CARDIOTOX 138)",rat heart tissue; LD10 dose for three days,−2.1 fold
same,Effects on Transcription Level: Long chain 3-ketoacyl-CoA thiolase (CARDIOTOX 136),"rat heart tissue; LD10 dose for three days, GenBank D16479",−1.5 fold
same,Effects on Transcription Level: TATA-binding protein interacting protein 120 (TIP120) (CARDIOTOX 135),"rat heart tissue; LD10 dose for three days, GenBank D87671",+2.4 fold
same,Effects on Transcription Level: Serine protease (CARDIOTOX 139),"rat heart tissue; LD10 dose for three days, GenBank D88250",+1.7 fold
same,Effects on Transcription Level: Thymosin beta-4 (CARDIOTOX 137),"rat heart tissue; LD10 dose for three days, GenBank M34043",+1.4 fold
same,Effects on Transcription Level: Annexin VI (no CARDIOTOX assignment given),"rat heart tissue; LD10 dose for three days, GenBank X86086",−5.1 fold
same,classification as cardiotoxic or noncardiotoxic serotonin modulating agent,[1],noncardiotoxic
